# Key:
# [1] = test system: cervicovaginal epithelium of female CD-1 mice; experiment: Cervicovaginal tissue inflammation after repetitive intravaginal application in mice (Example 8); settings: for neutrophils in cervicovaginal squamous epithelia (immunofluorescence): 5% in cream base intravaginally; for mice with inflammatory response or disruption of the squamous epithelia: 5% in cream base intravaginally daily for 5 or 20 days, 10 mice
# Method: In particular, 30 female CD-1 mice, 6 months old were randomly divided into two groups (A and B). Each group was further divided into three subgroups of 5 mice. […] After 5 and 20 days respectively, mice were killed by cervical dislocation, and tissues from the genitourinary tract were fixed in 10% buffered formalin. To determine the degree of inflammation and membrane integrity of squamous epithelia, conventional paraffin-embedded sections (6-pm) were prepared and stained with hematoxylin and eosin and observed under 300× magnification with a Leica microscope interfaced with an image analysis system (Scion), and images were transferred to Adobe Photoshop software for printout. The four stages of the estrous cycle were determined histologically.
# Following antigen retrieval by heating (93° C. for 10 min in 10 mM sodium citrate buffer, pH 6.0), sections were preincubated with 10% normal goat serum in PBS, treated with optimal dilution (5 μg/ml) of the mAb followed by FITC-conjugated goat anti-rat IgG (Pierce Chemical Co., Rockford, IL). Each incubation step lasted 60 min with 5 min PBS washes between each step. The slides were counterstained with PI (1 μg/ml), washed in deionized water, mounted in anti-fade (BioRad), and visualized by laser confocal microscopy as described above. Negative controls were carried out by replacing the primary mAb with PBS or using rat IgG2 as control mAb
# [2] = test system: human sperm in donor semen; experiment: Sperm immobilizing activity in diluted semen / seminal plasma (Example 3); format: cell-based; settings: 200 μM, 3 hours, CASA
# Method: Following 3 hours of incubation, duplicate aliquots (4-μl) were used for CASA.
# [3] = test system: binding of human sperm to human zona; experiment: Human sperm-zona binding assay (Example 5); format: cell-based
# Method: The human sperm-zona recognition and binding assay appears to predict the in vitro and in vivo fertilization outcome. […] Due to the variable number of sperm binding to human eggs, the sperm-zona binding ratio was used to assess sperm-zona binding capacity.
# Following coincubation, the number of tightly bound green (SYBR 14) and blue (SYTO 17) sperm were assessed by laser scanning confocal microscopy. Frozen human eggs (n=46) were thawed and rinsed three times in BWW-0.3% BSA, and in BWW-3.5% BSA, before addition of sperm suspension. […] The first aliquot was incubated with 2.5 μM SYBR 14 (Molecular Probes) and the second aliquot was incubated with 5 μM SYTO 17. Following 30 minutes of incubation, sperm motility was assessed by CASA. Motile sperm with intensely stained green or blue nuclei were washed twice in BWW and one million motile sperm labeled with SYBR 14 (green) and SYTO 17 (blue) were added to dish containing human zona (n=2) under mineral oil and coincubated for 4 hours. Following extensive washing of eggs to dislodge any loosely adherent sperm, the eggs were mounted on glass slides and examined under a BioRad MRC-1024 Laser Scanning Confocal Microscope as described above. Using fluorescence imaging, the fluorescence emission of SYBR-14 and SYTO-17 localized on the sperm head was simultaneously recorded using 598/40 nm, and 680 DF32 emission/filter respectively. Confocal images of Z-sections were obtained using a Nikon […] (NA 1.4) objective and Kalman collection filter. Digitized images were processed with the Adobe Photoshop software and final images were printed using a Fujix Pictography 3000 color printer. The number of tightly bound green and blue-colored sperm nuclei adherent to each human egg were counted from the Z-sections of fluorescence images of each egg on all focal planes and expressed as a binding ratio.
# HIV-1 strain HTLVIIIB = experiment: In vitro anti-HIV-1 activity, HTLVIIIB p24 assay in PBMC (Example 9); format: cell-based; settings: Human immunodeficiency virus 1; HIV-1 replication in PBMC, p24 antigen production
# Method: The HIV-1 strain, HTLVIIIB, which was propagated in CCRF-CEM cells, was used for in vitro assays of the anti-HIV-1 activity of selected novel WHI-07 analogues. Cell-free supernatants of HTLVIIIB-infected CCRF-CEM cells were harvested, dispensed into 1 ml aliquots, and frozen at −70° C. Titration of stock virus was performed by examining its cytopathic effects in MT-2 cells. [see, Uckun FM, et al., Antimicrob Agents Chemther 1998; 42:383-388]. Normal human peripheral blood mononuclear cells (PBMC) from HIV-negative donors were cultured for 72 h in RPMI 1640 supplemented with 20%(v/v) heat-inactivated fetal bovine serum (FBS), 3% interleukin-2, 2 mM L-glutamine, 25 mM HEPES, 2 g/L NaHCO3, 50 μg/ml gentamicin, and 4 μg/ml phytohemagglutinin prior to exposure to HIV-1 at a multiplicity of infection of 0.1 during a 1 h adsorption period at 37° C. in a humidified 5% CO2 atmosphere. […] Percent viral inhibition was calculated by comparing the p24 values from the drug-treated infected cells with p24 values from untreated infected cells (i.e., virus controls). […] A microculture tetrazolium assay, using 2,3-bis(2-methoxy-4-nitro-5-sulfophenyl)-5-[(phenylamino)-carbonyl]-2H-tetrazolium hydroxide, was performed to quantitate cellular proliferation.
# [4] = test system: human sperm binding and penetration of zona-free hamster eggs; experiment: Zona-free hamster egg penetration assay (Example 6); format: cell-based; settings: 25 μM or 100 μM, 3 hours preincubation; P<0.001
# Method: The heterologous zona-free hamster egg penetration assay appears to correlate with the in vivo fertilizing capacity of human sperm as well as the ability of human sperm to fertilize intact human eggs in vitro.
# 15, 471 (1976)]. Motile fractions of sperm (n=4) obtained by 90-45% Percoll gradient centrifugation and wash were resuspended in BWW-3.5% BSA medium (pH 7.4) and divided into aliquots of 20×10^6 sperm/ml and allowed to capacitate for 24 hours. […] After exposure to drugs, the control and WHI-treated sperm suspensions were washed in BWW-3.5% BSA medium. Sperm motility following capacitation and washing in BWW-3.5% BSA medium was assessed by CASA.
# Frozen hamster eggs (Charles River Laboratories, Wilmington, Mass.) were thawed and transferred to 35 mm glass bottom microwells (Mat Tek Corporation, Ashland, Mass.) in BWW medium. To remove zona, the washed eggs were treated with 0.05% trypsin (Irvine Scientific) in BWW medium for 20 min and then transferred to BWW-3.5% BSA medium and washed three times. Fifteen to 45 zona-free eggs per test were transferred in 100 μl of BWW-3.5% BSA medium under mineral oil. […] The number of sperm bound per egg, the number of swollen sperm heads per egg, and the percentage of penetrated eggs were determined for control and test sperm. […]
Compound,neutrophils in cervicovaginal squamous epithelia (immunofluorescence) [1],mice with inflammatory response or disruption of the squamous epithelia [1],sperm motility after direct addition to semen diluted in PBS [2],mean sperm-zona binding ratio ([3]; sperm pretreated with 25 μM),mean sperm-zona binding ratio ([3]; sperm pretreated with 50 μM),mean sperm-zona binding ratio ([3]; sperm pretreated with 100 μM),IC50 (HIV-1 strain HTLVIIIB) [nM],sperm binding to zona-free eggs [4]
"CCCCCCCCCc1ccc(OCCOCCOCCOCCOCCOCCOCCOCCOCCO)cc1 [Compound N-9, nonoxynol-9, reference compound]",intense positive staining,9 of 10,–,–,–,–,–,–
"COC(=O)C(C)NP(=O)(OCC1OC(N2C(=O)NC(=O)C(C)(Br)C2OC)CC1N=[N+]=[N-])Oc1ccc(Br)cc1 (stereo not drawn) [WHI-07, 5-Bromo-6-methoxy-5,6-dihydro-3′-azidothymidine-5′-(p-Bromophenyl Methoxyalaninyl Phosphate)]",absence of neutrophils,none of the 10 mice,complete loss of motility,0.088,0.039,0.009,5,significant inhibition
"5-bromo-6-methoxy-5,6-dihydro-3 ′-azidothymidine-5 ′-(p-methoxyphenyl) methoxyalaninyl phosphate [WHI-05]",–,–,complete loss of motility,0.18,0.07,0.10,–,significant inhibition
